According to patent US6054478A, “Antifungal sordaridin derivatives” (Glaxo Wellcome S.A., priority 1994, dated 2000):
≈ marks a conversion by molar mass, not a printed value.

Tests used:
[1] = test system: C. albicans 1208E; experiment: in vitro antifungal MIC, two-fold serial dilution; type: cell-based; conditions: Candida albicans, 24 to 48 hours at 37° C
Procedure: (§1) The in vitro evaluation of the anti-fungal activity of compounds of the invention was performed on liquid or solid medium by the anti-fungal two-fold serial dilution technique of determining the minimum inhibitory concentration (MIC) of anti-fungal agent that inhibited development of growth after 24 to 48 hours of incubation at 37° C. In practice, a series of agar plates or broth microdilution panels containing two-fold dilutions of anti-fungal agent tested were inoculated with a standard culture of a clinically relevant pathogen, for example, candida albicans. The agar plates or broth microdulution panels were then examined for the presence or absence of growth of the fungus and the appropriate MIC values were noted. Compounds of formula (I) have been tested for anti fungal activity in a standard in vitro screen and the minimum inhibiting concentration (MIC; μg/ml) determined for each compound against a variety of clinically relevant pathogens.

[2] = test system: C. albicans 2005E; experiment: in vitro antifungal MIC, two-fold serial dilution; type: cell-based; conditions: Candida albicans, 24 to 48 hours at 37° C
Procedure: as §1

[3] = test system: C. albicans 2402E; experiment: in vitro antifungal MIC, two-fold serial dilution; type: cell-based; conditions: Candida albicans, 24 to 48 hours at 37° C
Procedure: as §1

[4] = test system: C. albicans 4711; experiment: in vitro antifungal MIC, two-fold serial dilution; type: cell-based; conditions: Candida albicans, 24 to 48 hours at 37° C
Procedure: as §1

[5] = test system: C. glabrata 2375E; experiment: in vitro antifungal MIC, two-fold serial dilution; type: cell-based; conditions: Nakaseomyces glabratus, 24 to 48 hours at 37° C
Procedure: as §1

[6] = test system: C. glabrata 2376E; experiment: in vitro antifungal MIC, two-fold serial dilution; type: cell-based; conditions: Nakaseomyces glabratus, 24 to 48 hours at 37° C
Procedure: as §1

[7] = test system: C. neoformans 2867E; experiment: in vitro antifungal MIC, two-fold serial dilution; type: cell-based; conditions: Cryptococcus neoformans, 24 to 48 hours at 37° C
Procedure: as §1

[8] = test system: C. albicans 4711E; experiment: in vivo protection of mice infected with C. albicans; set-up: species or system Candida albicans; male mice; conditions: 50 mg/kg sc
Description: The in vivo evaluation of compounds of formula (I) can be carried out at a series of dose levels by administration (e.g. subcutaneously, orally, intraperitoneally or intravenously) to mice or rats inoculated with a strain of Candida albicans. Untreated animals die within 3 to 9 days and the dose level at which the test compound provides 50% protection against the lethal effect of the infection is noted.
(§2) The compounds of the invention are essentially non-toxic at therapeutically useful levels.

[9] = adverse effects in treated mice; type: in vivo, male mice; conditions: 50 mg/kg sc
Description: as §2

[10] = test system: C. tropicalis 2808E; experiment: in vitro antifungal MIC, two-fold serial dilution; type: cell-based; conditions: Candida tropicalis, 24 to 48 hours at 37° C
Procedure: as §1

[11] = test system: C. psuedotropicalis 371E; experiment: in vitro antifungal MIC, two-fold serial dilution; type: cell-based, Candida pseudotropicalis; conditions: Kluyveromyces marxianus, 24 to 48 hours at 37° C
Procedure: as §1

[12] = test system: fungal organisms; conditions: cited from earlier work; for antifungal activity (reported): reported in the literature; for antifungal activity and spectrum of action: when tested against a battery of fungal organisms

Row | MIC [1] [µg/mL] | MIC [2] [µg/mL] | MIC [3] [µg/mL] | MIC [4] [µg/mL] | MIC [5] [µg/mL] | MIC [6] [µg/mL] | MIC [7] [µg/mL] | MIC [10] [µg/mL] | MIC [11] [µg/mL] | Compound | protection of male mice infected with C. albicans 4711E [8] | adverse effects in the treated mice [9] | antifungal activity (reported) [12] | antifungal activity and spectrum of action [12]
1 | 1 (≈ 1.93 µM) | 0.12 (≈ 0.232 µM) | 1 (≈ 1.93 µM) | 0.5 (≈ 0.966 µM) | 62 (≈ 120 µM) | 62 (≈ 120 µM) | 4 (≈ 7.73 µM) | – | – | COC1C(C)OC(OCC23CC4C(C)CCC4C4(C=O)CC2C=C(C(C)C)C43C(=O)O)C(O)C1N=[N+]=[N-] [Example 10, [1R-(1α, 3aβ, 4β, 4aβ, 7β, 7aα, 8aβ)] 8a-[(3-Azido-3,6-dideoxy-4-O-methylβ-D-altropyranosyloxy)methyl]-4-formyl-4,4a,5,6,7,7a,8,8a-octahydro-7-methyl-3-(1-methylethyl)-1,4-methano-s-indacene-3a(1H)-carboxylic acid] | active in protecting male mice | no adverse effects were observed | – | –
2 | 0.06 (≈ 0.107 µM) | ≤ 0.001 | 0.06 (≈ 0.107 µM) | 0.015 (≈ 0.0267 µM) | 31 (≈ 55.1 µM) | 31 (≈ 55.1 µM) | > 125 | 1 (≈ 1.78 µM) | ≤ 0.001 | CC(=O)OC1C(C)OC(OCC23CC4C(C)CCC4C4(C=O)CC2C=C(C(C)C)C43C(=O)O)CC1SC(C)=O [Example 42, [1R-(1α, 3aβ, 4β, 4aβ, 7β, 7aα, 8aβ)] 8a-(((2,3,6-Trideoxy-4-O-acetyl-3-acetylthio-b-D-allopyranosyl)oxy)methyl)-4-formyl-4,4a,5,6,7,7a,8,8a-octahydro-7-methyl-3-(1-methylethyl)-1,4-methano-s-indacene-3a(1H)-carboxylic acid] | – | – | – | –
3 | – | – | – | – | – | – | – | – | – | COC1C(C)OC(OCC23CC4C(C)CCC4C4(C=O)CC2C=C(C(C)C)C43C(=O)O)C(O)C1O (stereo not drawn) [sordarin] | – | – | fungistatic activity | only moderately active and have limited spectra of action
4 | 0.6 (≈ 0.97 µM) | ≤ 0.001 | 0.03 (≈ 0.0485 µM) | – | 500 (≈ 808 µM) | 500 (≈ 808 µM) | 0.25 (≈ 0.404 µM) | 0.06 (≈ 0.097 µM) | 0.004 (≈ 0.00646 µM) | CCCCCCCC(=O)OC1C(O)C(OCC23CC4C(C)CCC4C4(C=O)CC2C=C(C(C)C)C43C(=O)O)OC(C)C1OC [Example 24, [1R-(1α, 3aβ, 4β, 4aβ, 7β, 7aα, 8aβ,)] 8a-[(6-Deoxy-4-O-methyl-3'-O-octanoyl-β-D-altropyranosyloxy)methyl]-4-formyl-4,4a,5,6,7,7a,8,8a-octahydro-7-methyl-3-(1-methylethyl)-1,4-methano-s-indacene-3a(1H)-carboxylic acid] | – | – | – | –
5 | 8 (≈ 15.4 µM) | 2 (≈ 3.86 µM) | 8 (≈ 15.4 µM) | 4 (≈ 7.71 µM) | > 125 | > 125 | 125 (≈ 241 µM) | 16 (≈ 30.8 µM) | 2 (≈ 3.86 µM) | CCCOC1C(C)OC(OCC23CC4C(C)CCC4C4(C=O)CC2C=C(C(C)C)C43C(=O)O)CC1OC [Example 9, [1R-(1α, 3aβ, 4β, 4aβ, 7β, 7aα, 8aβ)] 8a-[(2,6-Dideoxy-3-O-methyl-4-O-propyl-β-D-allopyranosyloxy)methyl]-4-formyl-4,4a,5,6,7,7a,8,8a-octahydro-7-methyl-3-(1-methylethyl)-1,4-methano-s-indacene-3a(1H)-carboxylic acid] | – | – | – | –
6 | 0.06 (≈ 0.13 µM) | 0.004 (≈ 0.00868 µM) | 0.06 (≈ 0.13 µM) | – | 8 (≈ 17.4 µM) | 8 (≈ 17.4 µM) | 62 (≈ 135 µM) | 0.25 (≈ 0.543 µM) | 0.008 (≈ 0.0174 µM) | COC1CCC(OCC23CC4C(C)CCC4C4(C=O)CC2C=C(C(C)C)C43C(=O)O)OC1C [Example 39, [1R-(1α, 3aβ, 4aβ, 7β, 7aα, 8aβ)] 8a-[(2,3,6-Trideoxy-4-O-methyl-β-D-allopyranosyloxy)methyl]-4-formyl-4,4a,5,6,7,7a,8,8a-octahydro-7-methyl-3-(1-methylethyl)-1,4-methano-s-indacene-3a(1H)-carboxylic acid] | – | – | – | –
7 | 0.25 (≈ 0.48 µM) | 0.03 (≈ 0.0576 µM) | 0.25 (≈ 0.48 µM) | 0.12 (≈ 0.23 µM) | 16 (≈ 30.7 µM) | 16 (≈ 30.7 µM) | 31 (≈ 59.5 µM) | 2 (≈ 3.84 µM) | 0.12 (≈ 0.23 µM) | COCOC1CC(OCC23CC4C(C)CCC4C4(C=O)CC2C=C(C(C)C)C43C(=O)O)OC(C)C1OC [Example 8, [1R-(1α, 3aβ, 4β, 4aβ, 7β, 7aα, 8aβ)] 8a-[(2,6-Dideoxy-4-O-methyl-3-O-methyloxymethyl-β-D-allopyranosyloxy)methyl]-4-formyl-4,4a,5,6,7,7a,8,8a-octahydro-7-methyl-3-(1-methylethyl)-1,4-methano-s-indacene-3a(1H)-carboxylic acid] | – | – | – | –
8 | 4 (≈ 6.94 µM) | 0.25 (≈ 0.433 µM) | 2 (≈ 3.47 µM) | – | > 125 | > 125 | 31 (≈ 53.7 µM) | 1 (≈ 1.73 µM) | 0.25 (≈ 0.433 µM) | CCCCCCOC1C(O)C(OCC23CC4C(C)CCC4C4(C=O)CC2C=C(C(C)C)C43C(=O)O)OC(C)C1OC [Example 3, [1R-(1α, 3aβ, 4β4aβ, 7β, 7aα, 8aβ)] 8a-[(6-Deoxy-3-O-hexyl-4-O-methyl-β-D-altropyranosyloxy)methyl]-4-formyl-4,4a,5,6,7,7a,8,8a-octahydro-7-methyl-3-(1-methylethyl)-1,4-methano-s-indacene-3a(1H)-carboxylic acid] | – | – | – | –
9 | 0.015 (≈ 0.0289 µM) | ≤ 0.001 | 0.008 (≈ 0.0154 µM) | 0.004 (≈ 0.00771 µM) | 8 (≈ 15.4 µM) | 8 (≈ 15.4 µM) | 125 (≈ 241 µM) | 0.003 (≈ 0.00578 µM) | 0.004 (≈ 0.00771 µM) | CCCOC1CC(OCC23CC4C(C)CCC4C4(C=O)CC2C=C(C(C)C)C43C(=O)O)OC(C)C1OC [Example 7, [1R-(1α, 3aβ, 4β, 4aβ, 7β, 7aα, 8aβ)] 8a-[(2,6-Dideoxy-4-O-3-O-propyl-β-D-alopyranosyloxy)methyl]-4-formyl-4,4a,5,6,7,7a,8,8a-octahydro-7-methyl-3-(1-methylethyl)-1,4-methano-s-indacene-3a(1H)-carboxylic acid] | active in protecting male mice | no adverse effects were observed | – | –
10 | – | – | – | – | – | – | – | – | – | CC=CC=CC(=O)OC1C(O)C(OCC23CC4C(C)CCC4C4(C=O)CC2C=C(C(C)C)C43C(=O)O)OC(C)C1OC (stereo not drawn) [zofimarin] | – | – | antifungal activity | only moderately active and have limited spectra of action
11 | ≤ 0.001 | ≤ 0.001 | ≤ 0.001 | ≤ 0.001 | 1 (≈ 2.04 µM) | 1 (≈ 2.04 µM) | 31 (≈ 63.2 µM) | 0.004 (≈ 0.00815 µM) | ≤ 0.001 | COC1CC(OCC23CC4C(C)CCC4C4(C=O)CC2C=C(C(C)C)C43C(=O)O)OC(C)C1OC [Example 5, [1R-(1α, 3aβ, 4β, 4aβ, 7β, 7aα, 8aβ)] 8a-[(2,6-Dideoxy-3,4-O-dimethyl-β-D-allopyranosyloxy)methyl]-4-formyl-4,4a,5,6,7,7a,8,8a-octahydro-7-methyl-3-(1-methylethyl)-1,4-methano-s-indacene-3a(1H)-carboxylic acid] | – | – | – | –
12 | 1 (≈ 1.91 µM) | 0.25 (≈ 0.478 µM) | 1 (≈ 1.91 µM) | 1 (≈ 1.91 µM) | 31 (≈ 59.3 µM) | 31 (≈ 59.3 µM) | 0.05 (≈ 0.0957 µM) | 2 (≈ 3.83 µM) | 1 (≈ 1.91 µM) | COC1C(C)OC(OCC23CC4C(C)CCC4C4(C=O)CC2C=C(C(C)C)C43C(=O)O)C(O)C1SC [Example 11, [1R-(1α, 3aβ, 4β, 4aβ, 7β, 7aα, 8aβ)] 8a-[(3,6-Dideoxy-4-O-methyl-3-methylthio-β-D-altropyranosyloxy)methyl]-4-formyl-4,4a,5,6,7,7a,8,8a-octahydro-7-methyl-3-(1-methylethyl)-1,4-methano-s-indacene-3a(1H)-carboxylic acid] | – | – | – | –
13 | ≤ 0.001 | ≤ 0.001 | ≤ 0.001 | ≤ 0.001 | 1 (≈ 1.99 µM) | 1 (≈ 1.99 µM) | 31 (≈ 61.8 µM) | 0.004 (≈ 0.00797 µM) | ≤ 0.001 | COC1C(N=[N+]=[N-])CC(OCC23CC4C(C)CCC4C4(C=O)CC2C=C(C(C)C)C43C(=O)O)OC1C [Example 15, [1R-(1α, 3aβ, 4β, 4aβ, 7β, 7aα, 8aβ)] 8a-[(3-Azido-4-O-methyl-2,3,6-trideoxy-β-D-allopyranosyloxy)methyl]-4-formyl-4,4a,5,6,7,7a,8,8a-octahydro-7-methyl-3-(1-methylethyl)-1,4-methano-s-indacene-3a(1)-carboxylic acid] | – | – | – | –
